# Assays:
# physchem [1] = assay: physchem
# physchem [2] = settings: hot water
# [3] = solubility in organic solvents; settings: ethanol and dmso, organic solvent or mixture
# cerebellar granule cells = assay: protection against apoptotic neuronal cell death induced by low potassium (KCl 5mM), MTT assay; assay type: cell-based, Mouse; settings: compound 100 µM in DMSO 0.2%, MTT 24 hrs later
# Description: The compounds as in Ex.3, 5, 8, 9 and 11 and GM1 were solubilized in DMSO 0.2% and added to the cells at the desired concentration.
# Mouse (Balb 6, 8-9 post-natal day) cerebellar granule cells were plated in basal Eagle medium (BEM) + 10% fetal calf serum + 25 […] + 2 mM glutamine + 100 µg/ml gentamicine dishes and coated with poly/L lisine. Culture medium was replaced with serum-free medium 6-9 days after plating. […] Neuronal cell survival was measured 24 hrs later by MTT assay.
# solubility in water = settings: for solubility: hot water
# granule cells = assay: neuroprotective effect against Excitatory Amino Acids (L-glutamic acid)-induced neuronal death in vitro, cell survival by MTT; assay type: cell-based, mouse; settings: for survived cells (%): A: Glu 500 µM, 5 min, incubated 24 hrs; for cytoprotection against Glu neurotoxicity: result in words, Glu 500 µM for 5 min, Table 5; for Survived Cells: co-treatment
# Description: The compounds being evaluated, referred to as No. 1, 2, 3, 4, 5, 9 and 10 (with reference to the molecules whose syntheses have been described by way of example), Diltiazem, MK 801 and monosialoganglioside GM1, were solubilized in Locke's solution and added to the culture mediums at the desired concentrations according to different treatment schedule indicated in the Tables, with a view to checking: • dose-effect relationship; • time-effect relationship vs. incubation time (start and duration) and exposure to neurotoxin.
# Granule cell cultures were prepared from post natal day 8-9 mouse Balb-6 cerebellum. The cells were suspended in EBM + 2mM L-glutamine, 100 U/ml penicillin, 50 µg/l gentamicin, 25 mM KCl and 10% fetal calf serum, plated on polylysine substrate, cultured for 8-10 days, and exposed to: i) L-glutamic acid (100 µM) at room temperature for 30-40 min. ii) L-glutamic acid (500 µM) at room temperature for 5 min.
# The compounds being evaluated were incubated at different times (2 hrs before and at the same time as exposure) or for different times ranging from 5 to 60 minutes after exposure to L-glutamic acid. The cultures were then brought back to the original medium and the number of survived cells was assessed by colorimetric method (MTT) 24 hours after excitotoxic stimulation.
# RBL-2H3 cells = assay: [3H]serotonin release assay in DNP-HSA stimulated RBL-2H3 cells; assay type: cell-based, Rat; settings: co-treatment with DNP-HSA, 15 min; 100 µM or 60 µM (not assigned per compound)
# Description: The compounds under evaluation as per Ex. 1, 3, 4, and 9 were dissolved in DMSO 0.2%, while the compound of Ex. 6 was dissolved in DMSO 1%, and they were added at the desired concentration of 100 µM or 60 µM.
# Rat basophil leukemia cells of the secreting subline 2H3 were grown in stationary cultures at 37°C in Eagle's minimal essential medium supplemented to contain 2mM L-glutamine, 100 IU/ml penicillin and 20% (v/v) heat-inactivated fetal calf serum (FCS). Cells were passed twice a week.
# A mouse monoclonal IgE which is specific for dinitrophenol (DNP) haptens (clone SPE-7; Sigma) was used. Dinitrophenylated human serum albumin (DNP-HSA) was employed as the triggering agent in these experiments. The level of conjunction was 30-40 moles of DNP per mole of albumin (Sigma). […] The culture supernatants were then collected in Eppendorf tubes, centrifuged (4 min, 3000 rpm) and 50 µl aliquots counted by standard liquid scintillation techniques. The cellular contents of each well were solubilized with 100 µl of 1% Triton X-100 in PBS, and a 50 µl aliquot counted as above. The percent of [3H]serotonin release was calculated.
# Background (spontaneous) release was normally < 5 % of the total radioactivity incorporated, and was always substracted from the stimulated release value ("net" release).
# [4] = compound 10 µM added 0 min after Glu removal
compound,measurement,setting,value
"O=C(CCCCCCCC(=O)NCCO[C@@H]1O[C@H](CO)[C@@H](O)[C@H](O)[C@H]1O)NCCO[C@@H]1O[C@H](CO)[C@@H](O)[C@H](O)[C@H]1O [Example 12, N,N'-bis-[2-0-(β-D-glucopyranosyl)-ethyl]-nonanediamide]",solubility,physchem [1]; dmso,> 10000 µg/mL
same,solubility,physchem [2],> 10000 µg/mL
"CCCCCCCCCC(=O)NCCO[C@@H]1O[C@H](CO)[C@@H](O)[C@H](O)[C@H]1O [Example 8, 2-0-(β-D-glucopyranosyl)-N-decanoyl-aminoethanol]",solubility,[3],> 10000 µg/mL
same,Cell survival (%),cerebellar granule cells,51%
same,solubility,solubility in water,> 10000 µg/mL
monosialoganglioside GM1 [reference compound],survived cells (%),granule cells; compound 100 µM added 0 min after Glu removal,31%
same,cytoprotection against Glu neurotoxicity,granule cells,does not show any significant action
same,Cell survival (%),cerebellar granule cells,78%
"CCCCC/C=C\C/C=C\C/C=C\C/C=C\CCCC(=O)NCCO[C@@H]1O[C@H](CO)[C@@H](O)[C@H](O)[C@H]1O [Example 13, 2-0-(β-D-glucopyranosyl)-N-arachidonoyl-aminoethanol]",solubility,[3],> 10000 µg/mL
same,water solubility,solubility in water; result in words,poorly soluble
"O=C(NCCO[C@@H]1O[C@H](CO)[C@H](O)[C@H](O)[C@H]1O)c1ccccc1 [Example 6, 2-0-(β-D-galactopyranosyl)-N-benzoyl-aminoethanol]",% of inhibition (serotonin net release inhibition),RBL-2H3 cells,54%
same,solubility,[3],> 10000 µg/mL
same,solubility,solubility in water,> 10000 µg/mL
"C[C@]12N[C@H](Cc3ccccc31)c1ccccc12 [MK 801, reference compound]",survived cells (%),granule cells; [4],66%
same,survived cells (%),granule cells; compound 10 µM added 15 min after Glu removal,32%
same,survived cells (%),granule cells; compound 10 µM added 30 min after Glu removal,30%
same,cytoprotection against Glu neurotoxicity,granule cells,"protective, at least partially, only after co-treatment"
"CCCCCCCCCCCCCCCC(=O)NCCO[C@@H]1O[C@H](CO)[C@@H](O)[C@H](O)[C@H]1O [Example 1, 2-O-(β-D-glucopyranosyl)-N-palmitoylaminoethanol]",% of inhibition (serotonin net release inhibition),RBL-2H3 cells,57%
same,solubility,[3],> 10000 µg/mL
same,survived cells (%) pre.,"granule cells; Glu 100 µM, 40 min, room temperature, compound 100 µM added 2 hrs before and then removed, survival after 24 hrs",44%
same,survived cells (%) co.,"granule cells; Glu 100 µM, 40 min, room temperature, compound 100 µM added at the same time, survival after 24 hrs",57%
same,survived cells (%) pre.+ co.,"granule cells; Glu 100 µM, 40 min, room temperature, compound 100 µM, 2 hrs before and at the same time, survival after 24 hrs",35%
same,Survived Cells,"granule cells; Glu 100 µM, room temperature, 40 min, compound 10 µM",22%
same,Survived Cells,"granule cells; Glu 100 µM, room temperature, 40 min, compound 25 µM",35%
same,Survived Cells,"granule cells; Glu 100 µM, room temperature, 40 min, compound 50 µM",48%
same,Survived Cells,"granule cells; Glu 100 µM, room temperature, 40 min, compound 100 µM",67%
same,Survived Cells,"granule cells; Glu 100 µM, room temperature, 40 min, compound 200 µM",90%
same,solubility in water,"solubility in water; at room temperature, result in words",poorly soluble
same,solubility,solubility in water,> 10000 µg/mL
"COc1ccc([C@@H]2Sc3ccccc3N(CCN(C)C)C(=O)[C@@H]2OC(C)=O)cc1 [Diltiazem, reference compound]",survived cells (%),granule cells; [4],35%
same,cytoprotection against Glu neurotoxicity,granule cells,does not show any significant action
"CCCCCCCCCCCC(=O)NCCO[C@H]1O[C@H](CO)[C@@H](O)[C@H](O)[C@H]1O [Example 14, 2-0-(α-D-glucopyranosyl)-N-dodecanoyl-aminoethanol]",solubility,physchem [1]; ethanol and dmso,> 10000 µg/mL
same,solubility,physchem [2],> 10000 µg/mL
"CCCCCCCCCCCCCCCCCC(=O)NCCO[C@@H]1O[C@H](CO)[C@@H](O)[C@H](O)[C@H]1O [Example 11, 2-0-(β-D-glucopyranosyl)-N-stearoyl-aminoethanol]",solubility,physchem [1]; dmso and hot isopropyl alcohol,> 10000 µg/mL
same,Cell survival (%),cerebellar granule cells,51%

# Reference: patent publication EP0751947B1, “GLUCOSIDIC DERIVATIVES OF N-ACYL ALKYLAMINES EXERTING NEUROPROTECTIVE, NEUROTROPHIC AND ANTI-INFLAMMATORY ACTION, USEFUL IN ACUTE AND CHRONIC DISORDERS OF THE CENTRAL NERVOUS SYSTEM CONNECTED WITH EXCITOTOXICITY” (LIFEGROUP S.p.A., priority 1994, dated 1995)
